In US9845308B2, “Isoindoline inhibitors of ROR-gamma” (Vitae Pharmaceuticals, Inc., priority 2014, dated 2017):

What was measured:
[1] = biological target: full-length RORγt in Jurkat cells (Homo sapiens (Human), UniProt P51449); assay: RORγt 5×RORE Assay in Jurkat Cells (Assay 2); type: cell-based; settings: 5xRORE secreted Nanoluc luciferase reporter, 16-18 hrs, read-out: RORγt5X IC50 Range* (nM) (Assay 2)
Experimental: [formula] RORγt 5×RORE Assay in Jurkat Cells (Assay 2)
Compounds of the present invention were tested for RORγ inverse agonist activity in a cell-based, transcriptional activity assay. […] (Promega, Cat. #N1021) using KpnI and HindIII restriction sites. […] Tested compounds were added to the cells in the same media (final concentration of DMSO was 0.1% (v/v)), and the plates were incubated at 37° C./5% CO2 for 16-18 hrs. Luciferase activity in the conditioned supernatants was determined with NanoGlo® assay reagents (Promega, Cat.#N1130).

[2] = biological target: recombinant RORγ Ligand Binding Domain (LBD) protein (Homo sapiens (Human), UniProt P51449); assay: Radio-Ligand RORγ Binding Assay (Assay 1); settings: competition with 25-hydroxy[26,27-3H]-cholesterol, SPA; read-out: RORγ Binding Ki Range* (nM) (Assay 1)
recombinant RORγ Ligand Binding Domain (LBD) protein, sequence (P51449 269-508): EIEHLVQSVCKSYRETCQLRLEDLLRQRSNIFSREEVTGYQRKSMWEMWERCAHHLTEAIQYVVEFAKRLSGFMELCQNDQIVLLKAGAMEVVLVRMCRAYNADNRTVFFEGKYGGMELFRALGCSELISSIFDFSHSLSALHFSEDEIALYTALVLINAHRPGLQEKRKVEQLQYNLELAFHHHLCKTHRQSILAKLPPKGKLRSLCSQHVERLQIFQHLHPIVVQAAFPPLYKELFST
Experimental: Radio-Ligand RORγ Binding Assay (Assay 1)
Compounds of the present invention were tested for ability to bind to RORγ in a cell-free competition assay with commercially available radio-ligand (RL), 25-hydroxy[26,27-^3H]-cholesterol (PerkinElmer, Cat. #NET674250UC), for a ligand binding site on a recombinant RORγ Ligand Binding Domain (LBD) protein expressed as a 6×His-Glutathione-S-Transferase (GST) fusion. […] The plate was shaken at 700 rpm for 20 min and incubated for 10 min at rt, after which 40 μL of poly-Lys YSi SPA beads (PerkinElmer, Cat. #RPNQ0010) were added to achieve 50 μg of the beads per well. The plate was incubated on an orbital shaker for 20 min and then for 10 min without agitation at rt. SPA signal for tritium beta radiation was registered on PerkinElmer Microbeta plate reader. […] The percent inhibition vs. concentration data were fit into a four-parameter model, and IC50 values were calculated from the fit as the concentrations corresponding to the inflection points on the dose-response curves. […]

full-length RORγt in Jurkat cells, sequence (P51449 other isoform, or with tags, fused parts or gaps): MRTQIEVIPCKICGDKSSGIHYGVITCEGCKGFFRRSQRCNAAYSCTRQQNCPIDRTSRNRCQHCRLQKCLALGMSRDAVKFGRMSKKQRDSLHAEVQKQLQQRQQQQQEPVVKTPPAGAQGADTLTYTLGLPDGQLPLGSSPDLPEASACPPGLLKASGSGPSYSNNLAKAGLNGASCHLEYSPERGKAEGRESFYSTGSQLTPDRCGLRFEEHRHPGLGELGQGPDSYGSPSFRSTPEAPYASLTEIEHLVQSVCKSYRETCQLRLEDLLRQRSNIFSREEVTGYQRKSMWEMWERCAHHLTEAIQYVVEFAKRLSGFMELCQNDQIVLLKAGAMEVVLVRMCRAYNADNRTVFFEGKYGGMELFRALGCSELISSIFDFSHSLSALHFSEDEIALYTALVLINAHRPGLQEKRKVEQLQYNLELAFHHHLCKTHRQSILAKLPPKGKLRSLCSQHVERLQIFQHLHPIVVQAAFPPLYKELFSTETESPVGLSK

| Structure (SMILES) | IC50 [1] [nM] | Ki [2] [nM] |
| --- | --- | --- |
| CCO[C@H]1CC[C@H](CN2Cc3cc(C(=O)NCc4ccc(S(=O)(=O)CC)cn4)ccc3[C@@H]2C(C)C)CC1 (single isomer, unassigned) [Compound 7a, 2-((trans-4-ethoxycyclohexyl)methyl)-N-((5-(ethylsulfonyl)pyridin-2-yl)methyl)-1-isopropylisoindoline-5-carboxamide] | < 100 | < 100 |
| CCO[C@H]1CC[C@H](CN2Cc3cc(C(=O)NCc4ccc(S(=O)(=O)CC)cn4)ccc3[C@H]2C(C)C)CC1 (single isomer, unassigned) [Compound 7b, 2-((trans-4-ethoxycyclohexyl)methyl)-N-((5-(ethylsulfonyl)pyridin-2-yl)methyl)-1-isopropylisoindoline-5-carboxamide] |  | > 1000 |
| CCS(=O)(=O)c1ccc(CNC(=O)c2ccc3c(c2)CN(CC2CCC(O)(C(F)(F)F)CC2)C3C(C)C)cc1 (single isomer, unassigned) [Compound 12a, N-(4-(ethylsulfonyl)benzyl)-2-((4-hydroxy-4-(trifluoromethyl)cyclohexyl)methyl)-1-isopropylisoindoline-5-carboxamide] | < 100 | < 100 |
| CCS(=O)(=O)c1ccc(CNC(=O)c2ccc3c(c2)CN(CC2CCC(O)(C(F)(F)F)CC2)C3C(C)C)cc1 (single isomer, unassigned) [Compound 12b, N-(4-(ethylsulfonyl)benzyl)-2-((4-hydroxy-4-(trifluoromethyl)cyclohexyl)methyl)-1-isopropylisoindoline-5-carboxamide] | > 1000 | < 100 |
| CCS(=O)(=O)c1ccc(CNC(=O)c2ccc3c(c2)CN(CC2CCC(O)(C(F)(F)F)CC2)C3C(C)C)cc1 (single isomer, unassigned) [Compound 12c, N-(4-(ethylsulfonyl)benzyl)-2-((4-hydroxy-4-(trifluoromethyl)cyclohexyl)methyl)-1-isopropylisoindoline-5-carboxamide] | 100 to 1000 | < 100 |
| CCS(=O)(=O)c1ccc(CNC(=O)c2ccc3c(c2)CN(CC2CCC(O)(C(F)(F)F)CC2)C3C(C)C)cc1 (single isomer, unassigned) [Compound 12d, N-(4-(ethylsulfonyl)benzyl)-2-((4-hydroxy-4-(trifluoromethyl)cyclohexyl)methyl)-1-isopropylisoindoline-5-carboxamide] | < 100 | < 100 |
| CCS(=O)(=O)N1CCC(CNC(=O)c2ccc3c(c2)CN(CC2CCC(OC)(C(F)(F)F)CC2)C3C(C)C)CC1 (single isomer, unassigned) [Compound 13a, N-((1-(ethylsulfonyl)piperidin-4-yl)methyl)-1-isopropyl-2-((4-methoxy-4-(trifluoromethyl)cyclohexyl)methyl)isoindoline-5-carboxamide] | 100 to 1000 | < 100 |
| CCS(=O)(=O)N1CCC(CNC(=O)c2ccc3c(c2)CN(CC2CCC(OC)(C(F)(F)F)CC2)C3C(C)C)CC1 (single isomer, unassigned) [Compound 13b, N-((1-(ethylsulfonyl)piperidin-4-yl)methyl)-1-isopropyl-2-((4-methoxy-4-(trifluoromethyl)cyclohexyl)methyl)isoindoline-5-carboxamide] | < 100 | < 100 |
| COC1(C(F)(F)F)CCC(CN2Cc3cc(C(=O)NCC4CCN(S(C)(=O)=O)CC4)ccc3[C@@H]2C(C)C)CC1 (single isomer, unassigned) [Compound 14b] | > 1000 | < 100 |
| CCS(=O)(=O)c1ccc(CNC(=O)c2ccc3c(c2)CN(CC2CCC(C(F)(F)F)OC2)[C@H]3C(C)C)nc1 (single isomer, unassigned) [Compound 16a] | < 100 | < 100 |
| CCS(=O)(=O)c1ccc([C@H](CO)NC(=O)c2ccc3c(c2)CN(C[C@H]2CC[C@H](C(F)(F)F)CC2)[C@H]3C(C)C)cc1 [Compound 3a] | < 100 | < 100 |
| CCS(=O)(=O)c1ccc([C@H](CO)NC(=O)c2ccc3c(c2)CN(C[C@H]2CC[C@H](C(F)(F)F)CC2)[C@@H]3C(C)C)cc1 [Compound 3b] | 100 to 1000 | < 100 |
| CCS(=O)(=O)c1ccc([C@@H](CO)NC(=O)c2ccc3c(c2)CN(C[C@H]2CC[C@H](C(F)(F)F)CC2)[C@H]3C(C)C)cc1 [Compound 3c] | < 100 | < 100 |
| CCS(=O)(=O)c1ccc([C@@H](CO)NC(=O)c2ccc3c(c2)CN(C[C@H]2CC[C@H](C(F)(F)F)CC2)[C@@H]3C(C)C)cc1 [Compound 3d] | > 1000 | < 100 |
| CC(C)[C@H]1c2ccc(C(=O)NCC3CCN(S(C)(=O)=O)CC3)cc2CN1C[C@H]1CC[C@H](C(F)(F)F)CC1 [Compound 4a] | < 100 | < 100 |
| CC(C)[C@@H]1c2ccc(C(=O)NCC3CCN(S(C)(=O)=O)CC3)cc2CN1C[C@H]1CC[C@H](C(F)(F)F)CC1 [Compound 4b] |  | 100 to 1000 |
| CCS(=O)(=O)c1ccc([C@H](CCO)NC(=O)c2ccc3c(c2)CN(C[C@H]2CC[C@H](C(F)(F)F)CC2)[C@H]3C(C)C)cc1 [Compound 6a] | < 100 | < 100 |
| CCS(=O)(=O)c1ccc([C@H](CCO)NC(=O)c2ccc3c(c2)CN(C[C@H]2CC[C@H](C(F)(F)F)CC2)[C@@H]3C(C)C)cc1 [Compound 6b] | 100 to 1000 | < 100 |
| CCS(=O)(=O)N1CCC(CNC(=O)c2ccc3c(c2)CN(CC2CCC(OC)(C(F)(F)F)CC2)C3C(C)C)CC1 (centres unmarked) [Compound 13c and 13d, N-((1-(ethylsulfonyl)piperidin-4-yl)methyl)-1-isopropyl-2-((4-methoxy-4-(trifluoromethyl)cyclohexyl)methyl)isoindoline-5-carboxamide] |  | 100 to 1000 |

Continued, values first:

| IC50 [1] [nM] | Ki [2] [nM] | Structure (SMILES) |
| --- | --- | --- |
| < 100 |  | CCS(=O)(=O)c1ccc(CNC(=O)c2ccc3c(c2)CN(CC2CCC(C(F)(F)F)OC2)[C@H]3C(C)C)nc1 (single isomer, unassigned) [Compound 16b] |
| < 100 | < 100 | CC[C@H]1c2ccc(C(=O)N[C@@H](COC(N)=O)c3ccc(S(=O)(=O)CC)cc3)cc2CN1C[C@H]1CC[C@H](C(F)(F)F)CC1 (single isomer, unassigned) [Compound 24a] |
| > 1000 | < 100 | CC[C@H]1c2ccc(C(=O)N[C@@H](COC(N)=O)c3ccc(S(=O)(=O)CC)cc3)cc2CN1C[C@H]1CC[C@H](C(F)(F)F)CC1 (single isomer, unassigned) [Compound 24b] |
| < 100 | < 100 | CCS(=O)(=O)c1ccc(CNC(=O)c2ccc3c(c2)C(=O)N(Cc2ccc(C(F)(F)F)cc2)C3C(C)C)cc1 (single isomer, unassigned) [Compound 26a, N-(4-(ethylsulfonyl)benzyl)-1-isopropyl-3-oxo-2-(4-(trifluoromethyl)benzyl)isoindoline-5-carboxamide] |
| 100 to 1000 | < 100 | CCS(=O)(=O)c1ccc(CNC(=O)c2ccc3c(c2)C(=O)N(Cc2ccc(C(F)(F)F)cc2)C3C(C)C)cc1 (single isomer, unassigned) [Compound 26b, N-(4-(ethylsulfonyl)benzyl)-1-isopropyl-3-oxo-2-(4-(trifluoromethyl)benzyl)isoindoline-5-carboxamide] |
| < 100 | < 100 | CCS(=O)(=O)c1ccc(CNC(=O)c2ccc3c(c2)CN(C[C@H]2CO[C@H](C(F)(F)F)OC2)[C@H]3C(C)C)nc1 (single isomer, unassigned) [Compound 32a] |
| > 1000 | < 100 | CCS(=O)(=O)c1ccc(CNC(=O)c2ccc3c(c2)CN(C[C@H]2CO[C@H](C(F)(F)F)OC2)[C@H]3C(C)C)nc1 (single isomer, unassigned) [Compound 32b] |
| < 100 | < 100 | CC[C@H]1c2ccc(C(=O)NCc3ccc(S(=O)(=O)NC)cc3)cc2CN1C[C@H]1CC[C@H](C(F)(F)F)CC1 [Compound 22] |
| < 100 | < 100 | CC[C@H]1c2ccc(C(=O)NCc3ccc(S(=O)(=O)NC)cn3)cc2CN1C[C@H]1CC[C@H](C(F)(F)F)CC1 [Compound 23a] |
| 100 to 1000 | < 100 | CC[C@@H]1c2ccc(C(=O)NCc3ccc(S(=O)(=O)NC)cn3)cc2CN1C[C@H]1CC[C@H](C(F)(F)F)CC1 [Compound 23b] |
| 100 to 1000 | < 100 | CCS(=O)(=O)c1ccc(CNC(=O)c2ccc3c(c2)C(=O)N(Cc2ccc(C(F)(F)F)cc2)C3C(C)C)nc1 (centres unmarked) [Compound 27] |
| < 100 | < 100 | CCS(=O)(=O)c1ccc([C@H](CO)NC(=O)c2ccc3c(c2)C(=O)N(Cc2ccc(C(F)(F)F)cc2)C3C(C)C)cc1 (some centres unmarked) [Compound 28] |
|  | > 1000 | CCC1(C)c2ccc(C(=O)NCc3ccc(S(=O)(=O)CC)cc3)cc2C(=O)N1CC1CCC(C(F)(F)F)CC1 (centres unmarked) [Compound 31, 1-ethyl-N-(4-(ethylsulfonyl)benzyl)-1-methyl-3-oxo-2-((4-(trifluoromethyl)cyclohexyl)methyl)isoindoline-5-carboxamide] |
